Measured values as given in the NIST ThermoML archive (doi:10.1021/je060271a).

Conditions: 303.15 K, Liquid, Vibrating tube method

CCCCCC(=O)OCC(COC(=O)CCCCC)(COC(=O)CCCCC)COC(=O)CCCCC [pentaerythritol tetrahexanoate]
Conditions	mass density [kg/m3]
12760 kPa	996.5
12780 kPa	996.4
12799 kPa	996.4
12822 kPa	996.5
12861 kPa	996.4
12903 kPa	996.4
12922 kPa	996.5
12946 kPa	996.6
12965 kPa	996.4
12985 kPa	996.5
13005 kPa	996.5
13307 kPa	996.6
13327 kPa	996.7
13352 kPa	996.8
13373 kPa	996.7
13394 kPa	996.7
13419 kPa	996.7
13439 kPa	996.8
13465 kPa	996.9
13486 kPa	996.8
13507 kPa	996.8
13533 kPa	996.8
13554 kPa	996.8
13576 kPa	996.7
13598 kPa	996.9
13624 kPa	996.9
13645 kPa	996.9
13671 kPa	997
13693 kPa	996.8
13715 kPa	996.9
13737 kPa	997
13763 kPa	997
13786 kPa	997
13808 kPa	997
13835 kPa	996.9
13857 kPa	997.1
13880 kPa	997
13902 kPa	997
13929 kPa	997
13952 kPa	997.1
13975 kPa	997.1
14002 kPa	997.2
14025 kPa	997
14052 kPa	997.1
14098 kPa	997.1
14126 kPa	997.1
14149 kPa	997.1
14174 kPa	997.2
14198 kPa	997.1
14222 kPa	997.2
14250 kPa	997.2
14273 kPa	997.2
14301 kPa	997.2
14324 kPa	997.3
14348 kPa	997.3
14371 kPa	997.4
14400 kPa	997.4
14423 kPa	997.3
14447 kPa	997.4
14476 kPa	997.4
14499 kPa	997.4
14522 kPa	997.3
14545 kPa	997.5
14569 kPa	997.4
14596 kPa	997.5
14620 kPa	997.5
14643 kPa	997.6
14671 kPa	997.4
14695 kPa	997.4
14722 kPa	997.4
14746 kPa	997.6
14770 kPa	997.6
